Test results from ChEMBL document CHEMBL4808223, “Design, synthesis and biological activity of bis-sulfonyl-BODIPY probes for tumor cell imaging” (Bioorg Med Chem Lett, 2021).

Key:
[1] = Drug uptake in human HeLa cells assessed as increase in fluorescence intensity at 10 uM incubated for 24 hrs by DAPI staining based confocal microscopic analysis; type: ADME, cell-based
[2] = test system: HCT-116; assay: Cytotoxicity against human HCT-116 cells by MTT assay; type: functional, cell-based
[3] = test system: HeLa; assay: Cytotoxicity against human HeLa cells by MTT assay; type: functional, cell-based
[4] = test system: L02; assay: Cytotoxicity against human L02 cells by MTT assay; type: cell-based
[5] = Drug uptake in tumor of mouse xenografted with human HeLa cells administered intraperitoneally and measured after 30 mins by fluorescence imaging analysis; type: ADME, tissue-based, Neoplasm; settings: in vivo, ip, 0.5 h
[6] = test system: HeLa; assay: Induction of apoptosis in human HeLa cells assessed as early apoptotic cells measured after 12 hrs by Annexin-V-FITC/propidium iodide staining based flow cytometry; type: functional
[7] = test system: HeLa; assay: Induction of apoptosis in human HeLa cells assessed as late apoptotic cells measured after 12 hrs by Annexin-V-FITC/propidium iodide staining based flow cytometry; type: functional
[8] = test system: HeLa; assay: Induction of apoptosis in human HeLa cells assessed as necrotic cells measured after 12 hrs by Annexin-V-FITC/propidium iodide staining based flow cytometry; type: functional
[9] = test system: HeLa; assay: Induction of apoptosis in human HeLa cells assessed as viable cells measured after 12 hrs by Annexin-V-FITC/propidium iodide staining based flow cytometry; type: functional

Row | Drug uptake [1] | Drug uptake [5] | Structure (SMILES) | IC50 [2] | IC50 [3] | IC50 [4] | Activity [6] | Activity [7] | Activity [8] | Activity [9]
1 | Active |  | CCC1=C(C)C2=C(c3ccccc3)c3ccc(NCCN)n3[B-](F)(F)[N+]2=C1C |  |  |  |  |  |  | 
2 | Active | Active | CCC1=C(C)C2=C(c3ccccc3)c3ccc(NCCNCC(=O)c4ccc(OS(=O)(=O)c5ccccc5)cc4OS(=O)(=O)c4ccccc4)n3[B-](F)(F)[N+]2=C1C | 93.1 µM | 89.1 µM | 53.3 µM | 0.24% | 2.46% | 0.91% | 96.38%
3 | Active |  | CCC1=C(C)C2=C(c3ccccc3)c3ccc(NCCNCC(=O)c4ccc(OS(C)(=O)=O)cc4OS(C)(=O)=O)n3[B-](F)(F)[N+]2=C1C | 101 µM | 95.5 µM | 41.7 µM |  |  |  | 
